This note sets out measurements from ChEMBL document CHEMBL4043168, “The design and SAR of a novel series of 2-aminopyridine based LRRK2 inhibitors” (Bioorg Med Chem Lett, 2017).

Test [1] has as its target Serine/threonine-protein kinase Nek9 (Homo sapiens) (UniProt Q8TD19). The test is described as follows: Inhibition of NEK9 conserved Lys2 (DIKTLNIFLTK) in human PBMC at 0.1 uM.
In test [2] the target is T1, Phosphatidylinositol 4,5-bisphosphate 3-kinase catalytic subunit delta isoform (Homo sapiens) (UniProt O00329).
T1 sequence (whole entry): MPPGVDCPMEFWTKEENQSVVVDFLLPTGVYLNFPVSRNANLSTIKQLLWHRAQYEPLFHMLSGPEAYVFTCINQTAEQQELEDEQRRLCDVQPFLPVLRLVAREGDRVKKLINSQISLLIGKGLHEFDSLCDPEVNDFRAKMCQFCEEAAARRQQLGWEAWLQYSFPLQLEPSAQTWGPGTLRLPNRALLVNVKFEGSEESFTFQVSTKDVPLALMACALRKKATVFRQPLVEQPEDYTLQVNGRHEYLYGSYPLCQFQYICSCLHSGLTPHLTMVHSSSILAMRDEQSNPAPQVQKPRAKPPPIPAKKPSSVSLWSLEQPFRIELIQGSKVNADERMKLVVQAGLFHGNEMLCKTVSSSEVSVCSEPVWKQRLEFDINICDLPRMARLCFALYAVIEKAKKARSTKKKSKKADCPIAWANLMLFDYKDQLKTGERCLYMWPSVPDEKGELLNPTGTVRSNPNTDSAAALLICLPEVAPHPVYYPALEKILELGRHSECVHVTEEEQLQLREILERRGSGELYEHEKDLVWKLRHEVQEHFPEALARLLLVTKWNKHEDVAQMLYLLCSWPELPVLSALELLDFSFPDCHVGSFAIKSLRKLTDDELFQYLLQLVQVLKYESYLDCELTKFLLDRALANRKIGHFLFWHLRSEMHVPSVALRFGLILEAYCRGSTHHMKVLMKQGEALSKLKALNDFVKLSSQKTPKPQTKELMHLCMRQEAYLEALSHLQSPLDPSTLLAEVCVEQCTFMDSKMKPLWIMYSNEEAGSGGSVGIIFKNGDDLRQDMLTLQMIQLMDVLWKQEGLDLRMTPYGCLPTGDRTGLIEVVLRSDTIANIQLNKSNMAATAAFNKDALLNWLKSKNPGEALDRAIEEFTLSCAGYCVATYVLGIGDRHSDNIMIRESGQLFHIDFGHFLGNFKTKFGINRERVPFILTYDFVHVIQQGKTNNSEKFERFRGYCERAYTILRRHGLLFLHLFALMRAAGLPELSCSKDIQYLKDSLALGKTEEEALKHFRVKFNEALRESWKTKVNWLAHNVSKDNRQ
The test is described as follows: Inhibition of PIK3CD ATP binding site (VNWLAHNVSKDNRQ) in human PBMC at 1 uM.

The target of test [3] is RAC-beta serine/threonine-protein kinase (Homo sapiens) (UniProt P31751). The test is described as follows: Inhibition of AKT2 labeling at ATP binding site (GTFGKVILVR) in human PBMC at 1 uM.
RAC-beta serine/threonine-protein kinase (Homo sapiens), sequence (P31751 whole entry): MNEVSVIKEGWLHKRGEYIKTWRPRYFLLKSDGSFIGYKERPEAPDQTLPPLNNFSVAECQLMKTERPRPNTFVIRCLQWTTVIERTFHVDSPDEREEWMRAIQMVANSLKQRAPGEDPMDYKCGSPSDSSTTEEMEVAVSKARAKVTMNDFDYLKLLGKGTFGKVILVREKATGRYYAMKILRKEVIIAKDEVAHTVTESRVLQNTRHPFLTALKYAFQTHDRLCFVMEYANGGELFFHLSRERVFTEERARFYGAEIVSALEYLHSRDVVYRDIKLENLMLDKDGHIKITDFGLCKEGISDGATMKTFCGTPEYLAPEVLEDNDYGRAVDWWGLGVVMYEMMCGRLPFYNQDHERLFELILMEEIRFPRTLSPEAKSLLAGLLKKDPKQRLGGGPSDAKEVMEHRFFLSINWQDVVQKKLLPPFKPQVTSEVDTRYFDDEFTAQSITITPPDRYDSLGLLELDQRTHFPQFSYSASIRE
Test [4] concerns the target Serine/threonine-protein kinase SMG1 (Homo sapiens) (UniProt Q96Q15). The test is described as follows: Inhibition of SMG1 ATP binding site (SYPYLFKGLEDLHLDER) in human PBMC at 1 uM.
For test [5], the target named is Phosphatidylinositol 3-kinase catalytic subunit type 3 (Homo sapiens) (UniProt Q8NEB9). Briefly: Inhibition of PIK3C3 ATP binding site (TEDGGKYPVIFKHGDDLR) in human PBMC at 0.1 uM.
Test [6] concerns the target 5'-AMP-activated protein kinase catalytic subunit alpha-1 (Homo sapiens) (UniProt Q13131). Briefly: Inhibition of AMPKa1 ATP loop (IGHYILGDTLGVGTFGKVK) in human PBMC at 1 uM. Conditions: pooled result: one value given for 5 cell lines, strains, targets or settings.
The target in test [7] is RAC-alpha serine/threonine-protein kinase (Homo sapiens) (UniProt P31749). The test is described as follows: Inhibition of AKT1 labeling at ATP binding site (GTFGKVILVK) in human PBMC at 1 uM.
Test [8] addresses Mitogen-activated protein kinase kinase kinase kinase 2 (Homo sapiens) (UniProt Q12851). Briefly: Inhibition of GCK conserved Lys2 (DIKGANLLLTLQGDVK) in human PBMC at 0.1 uM.
Test [9] addresses Serine/threonine-protein kinase Sgk3 (Homo sapiens) (UniProt Q96BR1). Briefly: Inhibition of SGK3 conserved Lys1 (FYAVKVLQK) in human PBMC at 1 uM.
For test [10], the target named is Serine/threonine-protein kinase TAO2 (Homo sapiens) (UniProt Q9UL54). The test is described as follows: Inhibition of TAO2 conserved Lys2 (DVKAGNILLSEPGLVK) in human PBMC at 1 uM.
Test [11] addresses Tyrosine-protein kinase Fer (Homo sapiens) (UniProt P16591). The test is described as follows: Inhibition of FER conserved Lys2 (QEDGGVYSSSGLKQIPIK) in human PBMC at 1 uM.
Test [12] addresses Serine/threonine-protein kinase 10 (Homo sapiens) (UniProt O94804). The test is described as follows: Inhibition of LOK conserved Lys1 (NKETGALAAAKVIETK) in human PBMC at 1 uM.
The target of test [13] is G protein-coupled receptor kinase 6 (Homo sapiens) (UniProt P43250). Briefly: Inhibition of GPRK6 conserved Lys2 (DLKPENILLDDHGHIR) in human PBMC at 1 uM.
Test [14] addresses Mitogen-activated protein kinase kinase kinase 15 (Homo sapiens) (UniProt Q6ZN16). The test is described as follows: Inhibition of MAP3K15 conserved Lys1 (IAIKEIPER) in human PBMC at 0.1 uM.
The target of test [15] is PAN2-PAN3 deadenylation complex subunit PAN3 (Homo sapiens) (UniProt Q58A45). Briefly: Inhibition of PAN3 Protein Kinase Domain (VMDPTKILITGK) in human PBMC at 1 uM.
Test [16] concerns the target Kinase suppressor of Ras 1 (Homo sapiens) (UniProt Q8IVT5). Briefly: Inhibition of KSR1 activation Loop (SKNVFYDNGK) in human PBMC at 1 uM.

Serine/threonine-protein kinase SMG1 (Homo sapiens), sequence (Q96Q15 whole entry): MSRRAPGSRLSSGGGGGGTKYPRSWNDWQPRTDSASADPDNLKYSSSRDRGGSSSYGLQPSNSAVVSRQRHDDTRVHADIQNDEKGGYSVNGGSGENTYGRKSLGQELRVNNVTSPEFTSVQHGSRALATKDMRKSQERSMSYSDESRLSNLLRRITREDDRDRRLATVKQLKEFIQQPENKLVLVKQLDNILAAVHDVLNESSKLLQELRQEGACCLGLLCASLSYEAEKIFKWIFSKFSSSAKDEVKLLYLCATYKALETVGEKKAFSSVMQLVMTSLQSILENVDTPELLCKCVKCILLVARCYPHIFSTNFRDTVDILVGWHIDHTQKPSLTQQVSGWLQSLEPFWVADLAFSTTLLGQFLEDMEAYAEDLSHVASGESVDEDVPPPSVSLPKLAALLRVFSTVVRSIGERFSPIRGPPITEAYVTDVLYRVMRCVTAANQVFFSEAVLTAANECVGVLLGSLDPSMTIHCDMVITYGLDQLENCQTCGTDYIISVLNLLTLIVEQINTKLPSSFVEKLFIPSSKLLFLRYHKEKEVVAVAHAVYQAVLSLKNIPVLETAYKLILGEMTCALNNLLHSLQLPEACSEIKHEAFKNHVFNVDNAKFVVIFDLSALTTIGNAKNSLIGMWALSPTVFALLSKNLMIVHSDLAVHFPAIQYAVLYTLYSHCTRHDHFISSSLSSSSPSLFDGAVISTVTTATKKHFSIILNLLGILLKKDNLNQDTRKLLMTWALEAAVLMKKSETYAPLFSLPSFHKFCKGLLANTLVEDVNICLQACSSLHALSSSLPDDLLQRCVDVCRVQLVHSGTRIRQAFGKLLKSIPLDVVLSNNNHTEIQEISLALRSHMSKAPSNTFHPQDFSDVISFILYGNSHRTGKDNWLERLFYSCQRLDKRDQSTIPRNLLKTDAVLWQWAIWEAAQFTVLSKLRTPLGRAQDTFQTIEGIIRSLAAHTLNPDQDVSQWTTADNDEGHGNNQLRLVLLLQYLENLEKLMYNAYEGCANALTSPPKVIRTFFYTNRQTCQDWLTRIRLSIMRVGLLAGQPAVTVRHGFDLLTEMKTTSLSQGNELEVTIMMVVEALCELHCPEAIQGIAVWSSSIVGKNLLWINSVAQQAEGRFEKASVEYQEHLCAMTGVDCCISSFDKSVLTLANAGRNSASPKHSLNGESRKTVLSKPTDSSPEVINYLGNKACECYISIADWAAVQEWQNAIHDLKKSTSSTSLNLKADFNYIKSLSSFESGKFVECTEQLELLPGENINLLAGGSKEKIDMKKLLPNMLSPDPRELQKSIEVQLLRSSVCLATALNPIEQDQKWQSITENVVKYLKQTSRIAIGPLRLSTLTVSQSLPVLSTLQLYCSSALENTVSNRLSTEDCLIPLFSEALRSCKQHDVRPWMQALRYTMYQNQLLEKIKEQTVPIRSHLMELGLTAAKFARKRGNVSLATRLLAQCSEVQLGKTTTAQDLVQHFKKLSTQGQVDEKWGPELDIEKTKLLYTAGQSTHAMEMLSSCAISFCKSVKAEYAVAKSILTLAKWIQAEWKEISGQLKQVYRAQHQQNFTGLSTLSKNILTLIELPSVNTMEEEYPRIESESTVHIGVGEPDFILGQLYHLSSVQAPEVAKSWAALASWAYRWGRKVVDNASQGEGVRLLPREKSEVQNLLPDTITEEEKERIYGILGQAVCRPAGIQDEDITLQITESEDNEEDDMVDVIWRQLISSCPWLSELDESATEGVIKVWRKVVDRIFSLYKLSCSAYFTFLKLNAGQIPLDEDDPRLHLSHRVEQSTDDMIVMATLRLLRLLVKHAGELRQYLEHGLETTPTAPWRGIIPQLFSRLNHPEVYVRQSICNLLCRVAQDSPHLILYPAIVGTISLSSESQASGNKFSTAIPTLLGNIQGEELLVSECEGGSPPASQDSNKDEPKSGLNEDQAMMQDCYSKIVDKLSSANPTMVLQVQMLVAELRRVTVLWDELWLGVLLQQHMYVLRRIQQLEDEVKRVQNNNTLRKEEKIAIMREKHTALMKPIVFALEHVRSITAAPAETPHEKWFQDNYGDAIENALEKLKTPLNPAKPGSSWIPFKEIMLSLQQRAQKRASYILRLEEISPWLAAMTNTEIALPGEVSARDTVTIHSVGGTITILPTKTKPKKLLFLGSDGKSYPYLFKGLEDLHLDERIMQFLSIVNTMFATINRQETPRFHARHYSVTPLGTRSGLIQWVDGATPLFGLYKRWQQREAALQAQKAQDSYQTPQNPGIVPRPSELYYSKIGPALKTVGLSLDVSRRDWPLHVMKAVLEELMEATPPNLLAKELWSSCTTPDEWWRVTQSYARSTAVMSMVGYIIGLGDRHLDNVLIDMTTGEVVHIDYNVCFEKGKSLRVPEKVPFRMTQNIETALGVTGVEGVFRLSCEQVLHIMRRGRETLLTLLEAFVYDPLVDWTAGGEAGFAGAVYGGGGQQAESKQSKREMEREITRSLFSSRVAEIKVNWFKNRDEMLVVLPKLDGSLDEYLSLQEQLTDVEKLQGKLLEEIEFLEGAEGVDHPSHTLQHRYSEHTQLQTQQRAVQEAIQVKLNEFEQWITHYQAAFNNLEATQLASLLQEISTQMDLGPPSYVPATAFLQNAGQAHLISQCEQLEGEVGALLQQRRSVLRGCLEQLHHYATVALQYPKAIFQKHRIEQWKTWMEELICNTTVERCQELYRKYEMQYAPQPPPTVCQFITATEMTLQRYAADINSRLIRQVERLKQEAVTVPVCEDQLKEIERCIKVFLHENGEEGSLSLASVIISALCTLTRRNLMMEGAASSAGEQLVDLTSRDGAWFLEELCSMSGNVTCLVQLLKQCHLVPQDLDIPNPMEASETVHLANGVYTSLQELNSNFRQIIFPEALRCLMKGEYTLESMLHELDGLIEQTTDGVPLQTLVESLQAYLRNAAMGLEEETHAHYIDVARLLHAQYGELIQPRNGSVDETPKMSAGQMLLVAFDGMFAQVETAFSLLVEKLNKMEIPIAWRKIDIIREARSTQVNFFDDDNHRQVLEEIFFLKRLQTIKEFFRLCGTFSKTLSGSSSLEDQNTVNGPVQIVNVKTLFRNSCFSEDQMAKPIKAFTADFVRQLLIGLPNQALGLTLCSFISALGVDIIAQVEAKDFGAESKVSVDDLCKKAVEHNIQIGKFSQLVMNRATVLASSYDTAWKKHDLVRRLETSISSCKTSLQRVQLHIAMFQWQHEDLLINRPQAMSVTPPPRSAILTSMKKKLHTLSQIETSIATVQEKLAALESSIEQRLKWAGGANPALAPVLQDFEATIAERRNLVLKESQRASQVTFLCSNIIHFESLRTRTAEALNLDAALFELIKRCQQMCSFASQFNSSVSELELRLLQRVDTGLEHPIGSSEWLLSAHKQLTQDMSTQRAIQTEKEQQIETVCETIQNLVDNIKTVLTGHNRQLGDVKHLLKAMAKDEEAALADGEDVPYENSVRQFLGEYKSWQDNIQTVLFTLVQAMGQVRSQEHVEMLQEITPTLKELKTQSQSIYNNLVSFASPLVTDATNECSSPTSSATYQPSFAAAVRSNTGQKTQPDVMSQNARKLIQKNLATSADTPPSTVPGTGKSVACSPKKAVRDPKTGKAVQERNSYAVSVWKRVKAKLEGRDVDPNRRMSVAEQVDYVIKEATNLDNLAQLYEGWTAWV
Serine/threonine-protein kinase 10 (Homo sapiens), sequence (O94804 whole entry, looked up): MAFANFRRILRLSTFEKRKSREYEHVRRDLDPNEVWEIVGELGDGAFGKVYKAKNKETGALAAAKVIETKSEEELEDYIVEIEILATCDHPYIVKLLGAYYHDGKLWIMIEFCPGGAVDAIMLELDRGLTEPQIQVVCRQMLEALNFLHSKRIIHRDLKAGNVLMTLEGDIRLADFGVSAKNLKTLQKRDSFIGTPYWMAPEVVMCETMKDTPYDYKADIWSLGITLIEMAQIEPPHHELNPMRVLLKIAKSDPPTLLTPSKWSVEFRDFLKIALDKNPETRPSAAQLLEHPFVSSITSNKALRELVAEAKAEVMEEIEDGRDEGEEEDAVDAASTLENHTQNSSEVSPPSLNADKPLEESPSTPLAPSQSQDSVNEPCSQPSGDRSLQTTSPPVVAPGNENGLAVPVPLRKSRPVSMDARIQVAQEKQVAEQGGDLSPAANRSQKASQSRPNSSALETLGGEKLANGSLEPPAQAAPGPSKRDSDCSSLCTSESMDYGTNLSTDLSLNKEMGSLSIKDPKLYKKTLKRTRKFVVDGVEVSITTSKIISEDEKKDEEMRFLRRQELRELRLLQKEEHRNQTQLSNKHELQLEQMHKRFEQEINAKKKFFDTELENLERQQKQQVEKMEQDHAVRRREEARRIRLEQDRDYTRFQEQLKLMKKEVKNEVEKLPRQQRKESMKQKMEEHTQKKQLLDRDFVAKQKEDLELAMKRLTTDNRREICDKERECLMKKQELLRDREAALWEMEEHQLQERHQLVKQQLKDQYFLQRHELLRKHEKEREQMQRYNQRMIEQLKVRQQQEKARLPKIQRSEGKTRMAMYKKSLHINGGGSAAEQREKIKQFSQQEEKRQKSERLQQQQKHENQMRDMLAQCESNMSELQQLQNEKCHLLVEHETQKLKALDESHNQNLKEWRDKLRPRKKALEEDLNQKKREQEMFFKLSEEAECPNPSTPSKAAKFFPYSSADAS

Usually inhibition stands for the relative decrease from the control value, in per cent. On to `CC(C)n1cc(-c2cc(-c3ccc(CN4CCOCC4)cc3)cnc2N)nn1`, for which the inhibition came to 26.5% in test [1]; 8% in [2]; 20.5% in [3]; 6.6% in test [4]; 14.1% in test [5]; 13.1% in [6]. Further, the inhibition is 27.4% in [7]; 10.9% in [8]; -2.2% in [9]; -3.8% in test [10]; 5.2% in test [11]; 32.2% in [12]. Also, the inhibition in test [13] was -10%; in test [14], -0.5%; in [15], 0.1%; in [16], 20.1%.
